“Also recorded” adds a separate entry of the source. Where two headings read alike, the source gives them in different places. Residues, ends and D or L forms follow the SMILES beside them.
Key:
[1] = format: physicochemical; details: for [θ2] λ2 195 nm / −[θ1] λ1 218 nm: 8 μM in water
Experimental: Circular dichroism (CD) spectra were taken on an Aviv Model 60DS spectropolarimeter using program 60HDS for data processing. Because EAK16 contains both positively and negatively charged residues, the peptide itself can serve as a buffer. CD samples were prepared and measured at 25° C., unless otherwise indicated. All reagents were ultrapure and solutions were filtered through a […] before use. Circular dichroism (CD) spectroscopy was used to monitor the stability of the β-sheet structure of EAK16 under various conditions. Dilute […] concentrations. […] A 3 mM stock EAK16 solution was mixed in water to a concentration of 20 μM, allowed to equilibrate, and the CD spectrum measured. The solution was then diluted five times by two-fold serial dilutions to final concentrations of […], 10, 5.0, 2.5, 1.25 and 0.625 μM, allowed to equilibrate and CD spectra taken. […] Temperature. The CD spectra of 8 μM EAK16 at 25, 37, 55, 70 and 90° C. in water were measured. […] EAK16 has a calculated pI Of 6.71. It was assumed that changes of pH would have a great effect on the β-sheet structure, especially when the charged groups are neutralized. […] The 3 mM stock solution of EAK16 was mixed with pH buffers at pH 1.5, 3, 7, and 11 to a final concentration of 10 μM and allowed to equilibrate for 4 hours before taking CD measurements. […] Chemical denaturants. […] The peptide (3 mM stock) was mixed with water or different concentrations of guanidine-HCl or urea and allowed to incubate overnight before taking CD measurements. SDS was added to a peptide solution to a final concentration of 0.1% and incubated for 30 minutes.

[2] = format: physicochemical
Experimental: Once formed, the macroscopic membranes are stable in a variety of aqueous solutions, including water, phosphate-buffered saline (PBS), tissue culture medium, serum, and also in ethanol, and can be transferred to and stored in any of these liquids. […] The membranes can be transferred from one solution to another using a solid support such as a spatula. They can be broken by cutting, tearing or shearing.
The stability of the membranes was also tested under a range of temperature, pH and chemical conditions. For these experiments, membranes were formed by adding 20 μl of a 0.5 mM stock solution of EAK16 to 0.5 ml of PBS, and transferred into water or other solutions at test conditions.
The membranes could be frozen and thawed, although care was required in handling the frozen membranes which were brittle. In boiling water, the membranes tended to be sheared by the mechanical agitation. […] (FIGS. 9A and 9B). […] Such strong thermal stability of the defined β-sheet structure of EAK16 is unusual for a small peptide. For example, these findings contrast with the α-helix-forming sixteen residue (Ala, Glu, Lys)-containing peptides studied previously (Marqusee and Baldwin, 1987).
The EAK16 membranes were also tested in water at pH 1.5, 3, 7 and 11 at room temperature for at least a week and at 95° C. for about 4 hours. The membranes were unaffected at these pH. […] It is possible that the complementary interactions between the Glu and Lys side-chains are strong even when the carboxyl groups of the Glu residues have been protonated at pH 1.5 and 3, due to their ability to form hydrogen bonds even when protonated.
The EAK16 membranes were further tested for resistance to chemical denaturation under the following conditions: 1% and 10% sodium dodecyl sulfate (SDS); 1, 2, 3, 4, 5, 6 and 7 M guanidine-HCl; and 1, 2, 3, 4, 5, 6, 7 and 8 M urea. […] The membranes were also tested at 95° C. for 4 hours in 10% SDS; 7 M guanidine-HCl; and at 8 M urea.

[3] = system: nerve growth factor-differentiated rat PC12 cells; format: cell-based
Excerpt: The membranes also appear to be non-cytotoxic. The EAK16 peptide formed macroscopic membranes when added to a tissue culture of nerve growth factor-differentiated rat PC12 cells.

PC12 cells = experiment: In vitro neurite outgrowth on peptide membranes; format: cell-based, rat
Experimental: The suitability of these materials for supporting in vitro neurite outgrowth was tested by treating biomaterial-attached PC12 cells with nerve growth factor (NGF). This treatment induces PC12 cells to differentiate into sympathetic neurons which can send out long processes called neurites. There was a marked difference in the neurite promoting properties of the two materials tested (EAK16 and RAD16).
Nerve growth factor differentiated PC12 cells have been used extensively in studies of neurite outgrowth. PC12 cells upregulate the number of calcium-dependent and -independent cell adhesion receptors in response to nerve growth factor. Cell attachment and neurite outgrowth from nerve growth factor differentiated PC12 cells was examined on membranes of RAD16 and EAK16 in order to determine whether membranes containing RGD-like sequences would preferentially support these cell activities. Neurite outgrowth on peptide membranes is of interest for potential applications of nerve repair.
Untreated PC12 cells were introduced to peptide membranes of EAK16 and RAD16 suspended in 85% RMMP1, 10% heat inactivated horse serum, 5 fetal bovine serum. Half of the cells were treated with nerve growth factor (50 ng/ml, NGF) and were supplemented with NGF every 3-4 days for 14 days. […] The neurite outgrowth reached greater than 400 μm in length, approximately 15-20 times the cell body, following the contour of the matrices in a three dimensional network.

[4] = Nucleotide hydrolysis activity; format: biochemical
Excerpt: In addition, the ability of small peptides such as EAK16 to self-assemble into membranes may be useful in origin of life studies related to cell membranes and cellular compartmentalization. […] This activity is probably due to the ability of lysine and glutamic acid side-chains to perform general acid and base catalysis.

**Q.** With `CC(=O)N[C@@H](C)C(=O)N[C@@H](CCC(=O)O)C(=O)N[C@@H](C)C(=O)N[C@@H](CCC(=O)O)C(=O)N[C@@H](C)C(=O)N[C@@H](CCCCN)C(=O)N[C@@H](C)C(=O)N[C@@H](CCCCN)C(=O)N[C@@H](C)C(=O)N[C@@H](CCC(=O)O)C(=O)N[C@@H](C)C(=O)N[C@@H](CCC(=O)O)C(=O)N[C@@H](C)C(=O)N[C@@H](CCCCN)C(=O)N[C@@H](C)C(=O)N[C@@H](CCCCN)C(N)=O` [EAK16] (Ac-AEAEAKAKAEAEAKAK-NH2) as the compound, how does the “β-sheet structure on dilution of the peptide” value ([1]; 0.625 to 20 μM in water) read?
**A.** The value was “not significantly affected by dilution of the peptide”.

**Q.** And the “CD spectra over temperature” value ([1]; 25, 37, 55, 70 and 90° C.)?
**A.** The value was “unaffected over the range of 25-90 °C”.

**Q.** And the “Ratio [θ2]/[θ1]” value ([1]; 25 ° C.)?
**A.** Its value is 3.9.

**Q.** What about the “[θ2] λ2 195 nm” value ([1]; 25 ° C.) of the same compound?
**A.** The value was 62 X1,000.

**Q.** And the “−[θ1] λ1 218 nm” value ([1]; 25 ° C.)?
**A.** The value was 16 X1,000.

**Q.** And the “Ratio [θ2]/[θ1]” value ([1]; 37 ° C.)?
**A.** The value was 4.0.

**Q.** What about the “[θ2] λ2 195 nm” value ([1]; 37 ° C.) of the same compound?
**A.** Its value is 60 X1,000.

**Q.** And the “−[θ1] λ1 218 nm” value ([1]; 37 ° C.)?
**A.** The value was 15 X1,000.

**Q.** And the “Ratio [θ2]/[θ1]” value ([1]; 55 ° C.)?
**A.** The value was 3.9.

**Q.** And the “[θ2] λ2 195 nm” value ([1]; 55 ° C.)?
**A.** The value was 55 X1,000.

**Q.** What about the “−[θ1] λ1 218 nm” value ([1]; 55 ° C.) of the same compound?
**A.** The value was 14 X1,000.

**Q.** And the “Ratio [θ2]/[θ1]” value ([1]; 70 ° C.)?
**A.** Its value is 4.1.

**Q.** What about the “[θ2] λ2 195 nm” value ([1]; 70 ° C.) of the same compound?
**A.** Its value is 54 X1,000.

**Q.** What about the “−[θ1] λ1 218 nm” value ([1]; 70 ° C.) of the same compound?
**A.** The value was 13 X1,000.

**Q.** And the “Ratio [θ2]/[θ1]” value ([1]; 90 ° C.)?
**A.** Its value is 4.0.

**Q.** And the “[θ2] λ2 195 nm” value ([1]; 90 ° C.)?
**A.** Its value is 50 X1,000.

**Q.** And the “−[θ1] λ1 218 nm” value ([1]; 90 ° C.)?
**A.** Its value is 12.5 X1,000.

**Q.** And the “β-sheet structure in chemical denaturants (CD spectra)” value ([1]; SDS at 90° C., 1-7 M guanidine-HCl or 8 M urea at room temperature for over 16 hours)?
**A.** Its value is “not significantly affected”.

**Q.** What about the “decrease of mean residue ellipticity (−[θ]218 nm), thermal profile” value ([1]; over 25-90° C.) of the same compound?
**A.** Its value is 22%.

**Q.** What about the “ratios of ellipticity at 194 nm/217 nm” value ([1]; over the temperature range of 25-90° C.) of the same compound?
**A.** Its value is “approximately 4.0”.

**Q.** And the “decrease of ellipticity (−[θ]218 nm), pH profile” value ([1]; pH 1.5 to 3, 7 and 11)?
**A.** Its value is “less than 10%”.

**Q.** What about the “stability of membranes and filaments in liquids” value [2] of the same compound?
**A.** Its value is “stable in aqueous solution, in serum, and in ethanol”.

**Q.** What about the “stability of membranes in water or PBS” value [2] of the same compound?
**A.** The value was “stable in water or PBS for at least a week”.

**Q.** And the “stability of membranes in water over temperature” value [2]?
**A.** Its value is “stable in water over a wide range of temperatures: up to 95° and at 4°, −20°, and −80 °C”.

**Q.** And the “resistance of membranes to chemical denaturation at room temperature” value ([2]; 1% and 10% SDS, 1-7 M guanidine-HCl, 1-8 M urea, room temperature at least 4 days)?
**A.** Its value is “remained stable”.

**Q.** What about the “membranes in 8 M urea at 95° C.” value ([2]; 95° C. for 4 hours, 8 M urea) of the same compound?
**A.** The value was “dissolved”.

**Q.** And the “membranes in SDS and 7 M guanidine-HCl at 95° C.” value ([2]; 95° C. for 4 hours, 10% SDS, 7 M guanidine-HCl)?
**A.** The value was “remained intact”.

**Q.** And the “pH at which membranes and filaments are stable” value ([2]; alkaline and acidic pH)?
**A.** The value was 1.5-11.

**Q.** What about the “effect on appearance or rate of growth of the cells” value [3] of the same compound?
**A.** The value was “did not affect the appearance or rate of growth of the cells”.

**Q.** And the “neurite outgrowth of NGF-treated PC12 cells, in words” value (PC12 cells; NGF-treated PC12 cells on membranes)?
**A.** The value was “little neurite processes; also recorded: little neurite outgrowth”.

**Q.** What about the “Neurite outgrowth, untreated, 14 days” value (PC12 cells; PC12 cells without NGF, 14 days) of the same compound?
**A.** The value was “− (no neurite outgrowth)”.

**Q.** What about the nucleotide hydrolysis activity [4] of the same compound?
**A.** The nucleotide hydrolysis activity was “partial nucleotide hydrolysis activity”.

Reference: patent US6800481B1, “Stable macroscopic membranes formed by self-assembly of amphiphilic peptides and uses therefor” (priority 1992, dated 2004)
